pEC50: −log10 of the molar value. In the oligonucleotide strings, read from the 5' end, every base follows the letter of its sugar. An asterisk marks phosphorothioate; unmarked linkages are phosphodiester. Other units and linkages are bracketed, terminal groups are in braces. A string of capitals states the bases alone. d = 2'-deoxy (DNA)
Legend:
[1] = molecular target: T1, murine TLR9 (Mus musculus, UniProt Q9EQU3); assay: 293 fibroblasts stably transfected with murine TLR9 and NF-κB-luciferase reporter, ODN stimulation; conditions: for pEC50: read-out: EC50 (concentration of the ligand stimulus that results in 50% maximal activation), NF-κB luciferase induction, stimulated for 16 hours, ODN titrated between 10 μM and 2 nM, FIG. 6; for course of activity (EC50) curves with time: ODN with less stable diester linkages
T1 sequence (Q9EQU3 26-1032): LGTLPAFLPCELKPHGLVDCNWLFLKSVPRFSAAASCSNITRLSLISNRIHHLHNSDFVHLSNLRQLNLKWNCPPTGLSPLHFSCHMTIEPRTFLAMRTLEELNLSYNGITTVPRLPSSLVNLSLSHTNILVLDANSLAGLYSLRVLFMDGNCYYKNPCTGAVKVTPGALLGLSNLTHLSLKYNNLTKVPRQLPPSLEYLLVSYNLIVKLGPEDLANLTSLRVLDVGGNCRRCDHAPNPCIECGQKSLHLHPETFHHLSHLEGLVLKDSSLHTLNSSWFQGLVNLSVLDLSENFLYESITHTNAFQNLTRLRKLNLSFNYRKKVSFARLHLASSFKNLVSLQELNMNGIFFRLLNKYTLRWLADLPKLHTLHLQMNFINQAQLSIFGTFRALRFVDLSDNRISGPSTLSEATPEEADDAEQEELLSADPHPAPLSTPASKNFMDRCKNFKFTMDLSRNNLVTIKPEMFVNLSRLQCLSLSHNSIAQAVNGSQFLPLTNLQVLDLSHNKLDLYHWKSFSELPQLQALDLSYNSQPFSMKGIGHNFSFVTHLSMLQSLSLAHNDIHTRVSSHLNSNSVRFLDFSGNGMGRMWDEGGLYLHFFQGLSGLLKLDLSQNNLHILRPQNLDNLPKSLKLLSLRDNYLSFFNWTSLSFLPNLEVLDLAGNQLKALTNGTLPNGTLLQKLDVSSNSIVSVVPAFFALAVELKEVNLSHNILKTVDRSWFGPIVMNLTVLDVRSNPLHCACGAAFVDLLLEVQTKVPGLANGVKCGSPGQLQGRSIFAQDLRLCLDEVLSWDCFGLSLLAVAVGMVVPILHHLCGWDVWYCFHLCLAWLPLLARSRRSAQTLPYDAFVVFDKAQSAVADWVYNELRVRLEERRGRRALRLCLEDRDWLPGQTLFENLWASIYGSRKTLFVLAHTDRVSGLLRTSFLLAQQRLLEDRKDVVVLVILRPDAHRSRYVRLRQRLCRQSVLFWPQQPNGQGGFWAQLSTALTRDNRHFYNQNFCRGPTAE
Description: (§1) Human 293 fibroblast cells stably transfected with murine TLR9 and an NF-κB-luciferase reporter were stimulated for 16 hours with the following fully phosphorothioated oligodeoxynucleotides (ODN):
(§2) Concentration of the stimulus was titrated between 10 μM and 2 nM. […] EC50 is defined as the concentration of the ligand stimulus that results in 50% maximal activation.
(§3) A family of stimulation curves was determined at various times of assay incubation between 1 and 24 hours. The EC50 was determined for each ligand at each time point.

[2] = molecular target: T2, hTLR9 (Homo sapiens, UniProt Q9NR96); assay: 293 fibroblasts transiently transfected with hTLR9, NF-κB-luc readout or IL-8 ELISA; format: cell-based; conditions: CpG-ODN 2006 2 μM, LPS 100 ng/ml; 8 h luciferase, 48 h IL-8; FIG. 1
T2 construct: expressed in transfected cells; host or cells: human 293 fibroblasts (ATCC CRL-1573), transient transfection by the calcium phosphate method
T2 sequence (Q9NR96 26-1032): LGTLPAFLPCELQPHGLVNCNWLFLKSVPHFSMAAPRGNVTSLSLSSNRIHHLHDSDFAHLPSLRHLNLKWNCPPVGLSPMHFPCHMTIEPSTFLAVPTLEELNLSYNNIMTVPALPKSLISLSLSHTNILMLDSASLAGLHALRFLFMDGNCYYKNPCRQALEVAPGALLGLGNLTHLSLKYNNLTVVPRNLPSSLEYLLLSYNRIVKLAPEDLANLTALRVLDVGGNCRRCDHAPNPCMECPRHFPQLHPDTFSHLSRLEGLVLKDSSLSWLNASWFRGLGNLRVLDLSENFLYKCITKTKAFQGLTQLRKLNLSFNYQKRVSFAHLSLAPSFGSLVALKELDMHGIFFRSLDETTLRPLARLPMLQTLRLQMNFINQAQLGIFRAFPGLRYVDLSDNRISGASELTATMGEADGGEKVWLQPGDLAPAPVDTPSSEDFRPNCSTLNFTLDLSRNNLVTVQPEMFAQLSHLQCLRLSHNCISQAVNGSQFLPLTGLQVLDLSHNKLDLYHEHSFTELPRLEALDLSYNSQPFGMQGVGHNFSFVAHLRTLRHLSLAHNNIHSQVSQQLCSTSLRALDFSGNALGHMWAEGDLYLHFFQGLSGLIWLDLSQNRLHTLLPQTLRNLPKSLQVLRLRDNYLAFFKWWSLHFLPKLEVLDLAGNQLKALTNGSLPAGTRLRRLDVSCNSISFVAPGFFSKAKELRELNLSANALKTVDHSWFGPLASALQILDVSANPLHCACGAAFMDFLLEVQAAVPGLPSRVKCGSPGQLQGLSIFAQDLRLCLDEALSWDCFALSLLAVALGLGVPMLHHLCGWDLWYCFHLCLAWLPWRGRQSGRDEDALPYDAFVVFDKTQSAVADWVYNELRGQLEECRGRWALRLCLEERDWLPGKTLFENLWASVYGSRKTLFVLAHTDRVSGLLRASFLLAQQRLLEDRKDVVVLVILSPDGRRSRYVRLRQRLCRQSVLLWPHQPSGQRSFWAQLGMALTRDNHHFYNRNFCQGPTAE
Source text: Methods for cloning murine and human TLR9 have been described in pending U.S. patent application Ser. No. 09/954,987 and corresponding published PCT application PCT/US01/29229, both filed Sep. 17, 2001, the contents of which are incorporated by reference. Human TLR9 cDNA and murine TLR9 cDNA in pT-Adv vector (from Clonetech) were individually cloned into the expression vector pcDNA3.1(−) from Invitrogen using the EcoRI site. Utilizing a “gain of function” assay it was possible to reconstitute human TLR9 (hTLR9) and murine TLR9 (mTLR9) signaling in CpG-DNA non-responsive human 293 fibroblasts (ATCC, CRL-1573). The expression vectors mentioned above were transfected into 293 fibroblast cells using the calcium phosphate method.
Since NF-κB activation is central to the IL-1/TLR signal transduction pathway (Medzhitov R et al. (1998) Mol Cell 2:253-258 (1998); Muzio M et al. (1998) J Exp Med 187:2097-101), cells were transfected with hTLR9 or co-transfected with hTLR9 and an NF-κB-driven luciferase reporter construct. […] After stimulus with CpG-ODN (2006, 2 μM, […], SEQ ID NO:15), GpC-ODN (2006-GC, 2 μM, […], SEQ ID NO:16), LPS (100 ng/ml) or media, NF-κB activation by luciferase readout (8 h, FIG. 1A) or IL-8 production by ELISA (48 h, FIG. 1B) were monitored. […]

[3] = molecular target: T1, murine TLR9
Description: as §1, §2, §3

[4] = assay incubation between 1 and 24 hours, FIG. 7

Q: “T*C*C*A*T*G*A*C*G*T*T*T*T*T (dT*dC*dC*dA*dT*dG*dA*dC*dG*dT*dT*dT*dT*dT) [ODN 5897]” was tested. Which pEC50 [1] did it give?
A: The pEC50 was 5.91.

Q: With “T*C*G*T*C*G*T*T*T*T*G*T*C*G*T*T*T*T*G*T*C*G*T*T [ODN 2006]” as the substance, how does the “response of cells expressing hTLR9 (NF-κB activation by luciferase readout, IL-8 production by ELISA)” value [2] read?
A: The value was “responded”.

Q: With “T*C_G*T*C_G*T*T*T*T_G*T*C_G*T*T*T*T*G*T*C_G*T*T [ODN 5746]” as the substance, how does the “course of activity (EC50) curves with time” value (shortened to “course of activity”) [1, 4] read?
A: Its value is “turn upward with time”.

Q: With lipopolysaccharide [LPS] as the substance, how does the “response of cells expressing hTLR9 (NF-κB activation by luciferase readout, IL-8 production by ELISA)” value [2] read?
A: Its value is “not”.

Q: How did the “course of activity” value [1, 4] turn out when “T*C*G*T*C*G*T*T*T*T_G_T_C_G_T*T*T*T*G*T*C*G*T*T [ODN 5497]” was run?
A: The value was “turn upward with time”.

Q: “T*C*C*A*T*G*A*C_G_T*T*T*T*T*G*A*T_G*T*T [ODN 5902]” was tested. Which “course of activity” value [1, 4] did it give?
A: The value was “turn upward with time”.

Q: Which results are given for “T*C*C*A*T*G*A*C*G*T*T*T*T*T*G*A*T*G*T*T (TCCATGACGTTTTTGATGTT; chemistry not given here) [ODN 5890]”?
A: affinity of ligand/receptor interaction from EC50 versus time curves [1, 4]: higher affinity; pEC50 [1]: 7.38; maximal activity (maximal fold induction) versus time [3]: less efficient at delivering high activity

From US20030166001A1, “Toll-like receptor 3 signaling agonists and antagonists” (priority 2001, published 2003)
